Results taken from patent publication US8563729B2, “Thienopyridone derivatives as AMP-activated protein kinase (AMPK) activators” (Merck Patent GmbH, priority 2008, dated 2013).

Target: T1, AMPK protein (recombinant α1β1γ2) (Homo sapiens, UniProt Q13131+Q9Y478)
T1 construct: made in house; host or cells: E. coli
Experiment: AMPK enzymatic activity (Delfia, AMARA peptide substrate)
Format: biochemical
Settings: compound 30 μM vs AMP 30 μM; 125 μM ATP; ratio 90% or higher = direct activator
Experimental: The following biological test allows the determination of the efficacy of such compounds of formula (I) onto AMPK protein (recombinant α1β1γ2).
Human recombinant AMPK enzyme was expressed in E. Coli and was reactivated in vitro by LKB1 prior to enzyme activity determination.
AMPK enzyme activities were assayed by using A Delfia technology. AMPK enzyme activities were carried out in microtiter plates (50 mM Hepes buffer, pH 7.4 with 125 μM ATP respectively) in the presence of a synthetic peptide substrate (AMARAASAAALARRR, the “AMARA” peptide) and activators in serial dilutions. Reactions were initiated by the addition of AMPK (50-100 ng). Following mixing, the plates were incubated for 30 min at room temperature. Enzyme activity was assayed by using an anti-phosphoserine antibody to measure the quantity of phosphate incorporated into the AMARAA.
N°: Number of the molecule
Activity: Ratio between the % of control (basal activity) of compound of formula (I) at 30 μM and the % of control (basal activity) of AMP (natural substrate) at 30 μM.
Compounds of formula (I) in the table II are considered as direct activator of AMPK if the ratio is 90% or higher.

T1 sequence (Q13131 whole entry): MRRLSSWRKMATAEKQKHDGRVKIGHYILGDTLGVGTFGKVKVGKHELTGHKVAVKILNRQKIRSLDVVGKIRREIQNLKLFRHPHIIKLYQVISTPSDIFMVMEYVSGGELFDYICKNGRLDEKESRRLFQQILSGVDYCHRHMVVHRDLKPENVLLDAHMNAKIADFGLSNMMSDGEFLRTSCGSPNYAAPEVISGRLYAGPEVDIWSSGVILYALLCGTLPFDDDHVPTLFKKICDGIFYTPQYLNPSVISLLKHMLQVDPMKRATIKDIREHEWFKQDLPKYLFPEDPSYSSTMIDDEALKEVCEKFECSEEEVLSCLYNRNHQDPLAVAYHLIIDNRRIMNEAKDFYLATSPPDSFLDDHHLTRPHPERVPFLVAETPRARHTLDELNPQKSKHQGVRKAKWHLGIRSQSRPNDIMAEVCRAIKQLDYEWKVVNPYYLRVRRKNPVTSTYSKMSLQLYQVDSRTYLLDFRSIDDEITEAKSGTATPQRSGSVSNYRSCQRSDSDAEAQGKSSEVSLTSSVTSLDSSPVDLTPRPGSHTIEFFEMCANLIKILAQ
T1 sequence (Q9Y478 whole entry): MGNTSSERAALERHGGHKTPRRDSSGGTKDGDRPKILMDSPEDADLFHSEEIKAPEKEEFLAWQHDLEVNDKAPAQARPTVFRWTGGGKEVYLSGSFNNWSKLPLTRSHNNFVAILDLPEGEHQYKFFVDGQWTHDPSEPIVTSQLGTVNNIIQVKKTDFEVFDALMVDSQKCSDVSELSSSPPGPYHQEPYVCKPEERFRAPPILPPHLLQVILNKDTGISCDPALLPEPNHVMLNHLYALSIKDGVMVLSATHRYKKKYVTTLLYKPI
T1 sequence (Q9UGJ0 whole entry partner): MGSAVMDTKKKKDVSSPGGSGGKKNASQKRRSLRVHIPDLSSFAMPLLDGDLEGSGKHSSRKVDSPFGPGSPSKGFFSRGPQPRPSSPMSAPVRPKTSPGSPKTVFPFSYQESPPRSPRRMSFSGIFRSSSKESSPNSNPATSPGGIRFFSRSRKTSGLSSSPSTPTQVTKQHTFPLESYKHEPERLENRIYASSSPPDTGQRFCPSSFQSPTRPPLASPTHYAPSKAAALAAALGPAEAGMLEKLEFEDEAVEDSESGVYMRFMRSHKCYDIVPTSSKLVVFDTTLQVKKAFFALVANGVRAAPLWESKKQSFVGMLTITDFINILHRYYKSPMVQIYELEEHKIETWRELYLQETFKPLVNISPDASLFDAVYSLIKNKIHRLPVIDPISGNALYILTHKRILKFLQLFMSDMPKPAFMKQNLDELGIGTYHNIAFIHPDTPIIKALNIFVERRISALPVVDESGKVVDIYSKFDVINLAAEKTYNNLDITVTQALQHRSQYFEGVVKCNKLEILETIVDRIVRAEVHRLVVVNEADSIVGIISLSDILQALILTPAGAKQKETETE

activity: Ratio between the % of control (basal activity) of compound of formula (I) at 30 μM and the % of control (basal activity) of AMP at 30 μM [%]	Structure (SMILES)
134	NC(=O)c1ccc(-c2c(O)c3c(-c4ccccc4)c(Cl)sc3[nH]c2=O)cc1 [Compound 151]
103	Cc1cccc(-c2csc3[nH]c(=O)c(-c4ccccc4)c(O)c23)c1 [Compound 50]
93	CCCCc1ccc(-c2c(Cl)sc3[nH]c(=O)c(-c4ccccc4)c(O)c23)cc1 [Compound 134]
147	COc1ccc(-c2csc3[nH]c(=O)c(-c4ccccc4)c(O)c23)cc1 [Compound 32]
115	O=c1[nH]c2sc(Cl)c(-c3ccc(F)cc3F)c2c(O)c1-c1ccccc1 [Compound 114]
146	O=c1[nH]c2scc(-c3ccccc3O)c2c(O)c1-c1ccccc1 [Compound 55]
103	NC(=NO)c1cccc(-c2c(O)c3c(-c4ccccc4)c(Cl)sc3[nH]c2=O)c1 [Compound 146]
117	O=C(O)c1cccc(-c2c(O)c3c(-c4ccc(F)cc4)c(Cl)sc3[nH]c2=O)c1 [Compound 130]
119	O=c1[nH]c2scc(-c3ccc(CO)cc3)c2c(O)c1-c1ccccc1 [Compound 38]
119	O=c1[nH]c2scc(-c3ccc(Br)cc3)c2c(O)c1-c1ccccc1 [Compound 25]
195	O=c1[nH]c2sc(Cl)c(-c3cccc(CO)c3)c2c(O)c1-c1ccccc1 [Compound 124]
176	O=c1[nH]c2scc(-c3cccc(CO)c3)c2c(O)c1-c1ccccc1 [Compound 52]
207	Cc1ccc(-c2c(O)c3c(-c4ccc(F)cc4O)c(Cl)sc3[nH]c2=O)cc1 [Compound 214]
110	COc1ccc(-c2csc3[nH]c(=O)c(-c4ccc(F)cc4)c(O)c23)cc1 [Compound 42]
92	O=c1[nH]c2scc(-c3ccc(O)cc3)c2c(O)c1-c1ccc(O)cc1 [Compound 41]
593	COc1ccc(O)c(-c2csc3[nH]c(=O)c(-c4ccccc4)c(O)c23)c1 [Compound 79]
102	O=C(O)c1sc2[nH]c(=O)c(-c3ccccc3)c(O)c2c1-c1ccccc1 [Compound 3]
144	O=c1[nH]c2scc(-c3ccc(F)cc3O)c2c(O)c1-c1ccccc1 [Compound 66]
403	CNC(=O)c1cccc(-c2c(O)c3c(-c4ccccc4)c(Cl)sc3[nH]c2=O)c1 [Compound 141]
107	O=c1[nH]c2scc(-c3ccccc3F)c2c(O)c1-c1ccccc1 [Compound 56]
103	O=c1[nH]c2scc(-c3ccccc3Cl)c2c(O)c1-c1ccccc1 [Compound 58]
287	Cc1ccc(-c2csc3[nH]c(=O)c(-c4cccc(C#N)c4)c(O)c23)c(O)c1 [Compound 87]
95	NC(=NO)c1ccc(-c2c(O)c3c(-c4ccccc4)c(Cl)sc3[nH]c2=O)cc1 [Compound 155]
160	O=c1[nH]c2scc(-c3c(F)cccc3F)c2c(O)c1-c1ccccc1 [Compound 78]
131	COc1ccc(-c2csc3[nH]c(=O)c(-c4ccccc4)c(O)c23)cc1F [Compound 71]

activity: Ratio between the % of control (basal activity) of compound of formula (I) at 30 μM and the % of control (basal activity) of AMP at 30 μM [%]	Structure (SMILES)
113	Cc1ccc(-c2c(Cl)sc3[nH]c(=O)c(-c4ccccc4)c(O)c23)cc1 [Compound 135]
108	O=c1[nH]c2sc(Cl)c(-c3ccc(O)cc3)c2c(O)c1-c1ccc(F)cc1 [Compound 132]
126	N=C(N)c1cccc(-c2c(O)c3c(-c4ccccc4)c(Cl)sc3[nH]c2=O)c1 [Compound 142]
120	O=c1[nH]c2sc(Cl)c(-c3ccc(O)cc3F)c2c(O)c1-c1ccccc1 [Compound 116]
107	O=c1[nH]c2scc(-c3ccccc3)c2c(O)c1-c1ccccc1 [Compound 16]
150	O=c1[nH]c2scc(-c3ccc(O)c(F)c3)c2c(O)c1-c1ccccc1 [Compound 72]
90	CS(=O)(=O)c1cccc(-c2c(O)c3c(-c4ccccc4)c(Cl)sc3[nH]c2=O)c1 [Compound 145]
111	O=C(O)c1ccc(-c2c(O)c3c(-c4ccccc4)c(Cl)sc3[nH]c2=O)cc1 [Compound 153]
98	COc1ccc(-c2c(O)c3c(-c4ccc(F)cc4)csc3[nH]c2=O)cc1 [Compound 44]
251	O=c1[nH]c2sc(Cl)c(-c3ccc(F)cc3)c2c(O)c1-c1ccc(F)cc1 [Compound 203]
112	O=c1[nH]c2scc(-c3ccc(Br)c(O)c3)c2c(O)c1-c1ccccc1 [Compound 74]
96	O=c1[nH]c2scc(-c3cc(O)cc(O)c3)c2c(O)c1-c1ccccc1 [Compound 68]
131	CS(=O)(=O)c1ccc(-c2c(O)c3c(-c4ccccc4)c(Cl)sc3[nH]c2=O)cc1 [Compound 154]
95	O=c1[nH]c2sc(Cl)c(-c3cc(Cl)c(O)cc3F)c2c(O)c1-c1ccccc1 [Compound 113]
257	O=c1[nH]c2scc(-c3ccc(Br)cc3O)c2c(O)c1-c1ccccc1 [Compound 77]
100	COc1ccc(-c2csc3[nH]c(=O)c(-c4ccccc4)c(O)c23)c(OC)c1 [Compound 60]
110	O=c1[nH]c2sc(Cl)c(-c3ccccc3)c2c(O)c1-c1ccccc1OCc1ccccc1 [Compound 158]
223	COc1ccc(-c2csc3[nH]c(=O)c(-c4ccccc4)c(O)c23)c(O)c1 [Compound 81]
158	COc1cc(-c2csc3[nH]c(=O)c(-c4ccccc4)c(O)c23)ccc1C [Compound 84]
164	O=c1[nH]c2sc(Cl)c(-c3ccccc3)c2c(O)c1-c1ccccc1O [Compound 159]
94	COc1cc(-c2csc3[nH]c(=O)c(-c4ccccc4)c(O)c23)ccc1Br [Compound 73]
115	O=c1[nH]c2sc(Cl)c(-c3c(F)cccc3F)c2c(O)c1-c1ccccc1 [Compound 106, 2-chloro-3-(2,6-diflurophenyl)-4-hydroxy-5-phenyl-6,7-dihydro-thieno[2,3-b]pyridin-6-one]
146	O=c1[nH]c2scc(-c3ccc(O)cc3O)c2c(O)c1-c1ccccc1 [Compound 61]
109	COc1ccc(-c2c(O)c3c(-c4ccc(OC)cc4)csc3[nH]c2=O)cc1 [Compound 40]
406	Cc1ccc(-c2csc3[nH]c(=O)c(-c4ccccc4)c(O)c23)cc1O [Compound 85]
